{"source": "paper PMC10756276", "about": "“Highly specific σ2R/TMEM97 ligand FEM-1689 alleviates neuropathic pain and inhibits the integrated stress response” (Proceedings of the National Academy of Sciences of the …, 2023)", "key": {"[1]": {"test_system": "p-eIF2α, eIF2A, p-PERK, BiP in HEK293T cells", "assay": "Western blot of ISR-related proteins in HEK293T cells", "assay_type": "cell-based, human", "conditions": "HEK293T, 0.1, 1, 10, 100 nM, 16 h (overnight)", "protocol": "Huma n e mbryon ic kidn ey (HEK) 293T ce lls (ATCC # C RL- 321 6) were ge nerously dona ted by th e Ca mpb ell Lab (UT Dallas). Cell stock s were previously fr ozen at 1 million cells/ml in 90% fetal bov ine s erum (F BS, ThermoFisher #SH300880340) and 10% DMSO. Cells were grown in complete medium (10% FBS, 1% Pen- Strep in DMEM/F12 + GlutaMax (Gibco #10565- 018) in T-75 flasks (Greiner Bio- One #658175). Cells were maintained at 37 °C with 5% CO2 and passaged twice before being plated onto either 96-well or 6-well plates for ICC/spectrophotometry and western blotting, respectively. Cells were counted using the TC20 automated cell counter (Bio- R ad #1450102) using a 1:1 dilution of trypan blue (Gibco #15250061).\nConcentr ations were transformed to […] values and data w as fit to a non- linear regression curve (inhibitor vs response, varia ble slop e , four p aram eters) constrain ed at top at 1 00, bott om at p -eIF2α levels at 300nM, […]\nHEK cells were plated at 60,000 cells per well onto six-well plates (ThermoFisher # 351146) for 24 hours before being treated w ith F EM- 1689 overnight. Protein extractions and western blotting w as perfor med as previous ly published (10) . In brief, media fr om the cells was removed and cells were washed once with 1X\nPBS. Cells were lysed in the well with radioimmunoprecipitation assay (RIPA) buffer consisting of 25 mM Tris, 150 mM NaCl, 0.1% SDS, 0.5% Na deoxycholate, 1% Triton X-100 with pr otease and phosphatas e inhibitor cocktails (Sigma Aldrich P8340, P5726, P0044 – 1:100 each). Cells were centr ifuged at 4 °C at 14,000 rpm for 10 min. The supernatant was used for downstream analysis. Protein was quantif ied using the Pierce BC A Protein Assay kit (Thermo Scientific, #23225) according to the manufacturer’s instructions.\nProte in samp les were de na tured usin g 4X L aem mli Sa mple buff er (BioR ad #1 610 747) and h eat ed at 95 °C for 5 min. 20 µg of protein samples were loaded onto 4- 20% Stain- Free Criterion TGX gels (BioRad #5678094). Gels were run in Tris/Glycine/SDS running buffer ( BioRad #1610772) at 120V for roughly 1.5 hours. St ain- Free gels wer e activated for 5 min pr ior to t he transf er step. Protein was transferred for 10 min onto low fluorescence poly vinylidene difluor ide (PVDF ) using a TransBlot Transfer kit (BioRad #1704275) and a Transblot Turbo transfer system (BioRad). Onc e transferred, total protein was imaged immediately using a ChemiDoc MP system (BioRad). Blots were allowed to dry for 5 min and were blocked with 5% non- fat milk in Tr is buffered saline (T BS)-Tween 20 (0.05%). Antibodies were diluted in 1% non- fat m ilk in TBS- Twe en 20. Primary ant ibo dies used in this st udy w ere: p- eIF 2α (1:1000, C ell Signaling #3398), t-eIF2α […]"}, "D2": {"biological_target": "D2 (Homo sapiens, UniProt P14416)", "sequence (P14416 whole entry)": "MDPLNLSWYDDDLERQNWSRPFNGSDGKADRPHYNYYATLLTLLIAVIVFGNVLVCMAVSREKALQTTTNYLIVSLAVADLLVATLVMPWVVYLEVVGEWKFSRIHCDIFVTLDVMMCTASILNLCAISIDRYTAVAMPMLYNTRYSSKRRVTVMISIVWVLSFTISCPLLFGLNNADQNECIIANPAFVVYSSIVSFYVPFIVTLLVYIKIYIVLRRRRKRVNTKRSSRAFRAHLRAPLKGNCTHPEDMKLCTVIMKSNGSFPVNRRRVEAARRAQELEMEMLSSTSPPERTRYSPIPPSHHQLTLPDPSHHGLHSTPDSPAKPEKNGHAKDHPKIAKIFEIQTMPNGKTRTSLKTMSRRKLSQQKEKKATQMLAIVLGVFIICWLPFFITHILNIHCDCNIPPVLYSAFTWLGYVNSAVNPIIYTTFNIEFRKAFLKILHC", "assay": "PDSP competitive binding assay", "conditions": "10 µM test article; read-out: Ki: primary assay inhibition of radioligand binding, D2"}}, "note": "Entries after “also recorded” stand apart in the source; their conditions may differ."}
{"smiles": "OCCCN1CC[C@@H]2C[C@H]1c1cc(-c3ccc(C(F)(F)F)cc3)ccc12", "note": "[FEM-1689]", "values": [{"measurement": "BiP level (western blot)", "setting": "[1]", "result": "remained stable; also recorded: remained unchanged"}, {"measurement": "eIF2A level (western blot)", "setting": "[1]", "result": "concentration-dependent reduction; also recorded: significant reduction"}, {"measurement": "p-PERK level (western blot)", "setting": "[1]", "result": "concentration-dependent reduction; also recorded: significant reduction"}, {"measurement": "p-eIF2α level (western blot)", "setting": "[1]", "result": "concentration-dependent reduction; also recorded: significant reduction"}, {"measurement": "inhibition at 10 µM", "setting": "D2", "result": "< 50", "unit": "%"}]}
